Experimental data: patent US10023554B2, “Halogen-substituted heterocyclic compound salt” (UBE INDUSTRIES, LTD., priority 2014, dated 2018)

tested on: A2058 human melanoma cells; assay: Cell migration test (LPA-induced migration, Chemo-Tx); type: cell-based; settings: LPA final concentration 100 nM, 3 hours at 37° C., read-out: concentration (IC50) of the test compound required for 50% inhibition of the cell migration activity of LPA
Procedure: The cell migration test was carried out using Chemo-Tx (registered trademark) (116-8, Neuro Probe). A2058 human melanoma cells (obtained from European Collection of Cell Culture) were cultured in a serum-free EMEM medium for 24 hours, and were re-suspended in a 0.1% BSA-containing DMEM medium to give a cell suspension. The test compounds dissolved in DMSO in various concentrations were each added to the cell suspension, and the suspensions were cultured at 37° C. for 15 minutes (final DMSO concentration 0.5%). LPA dissolved in a 0.1% BSA-containing DMEM medium (final concentration 100 nM) was added to a Chemo-Tx 96 well plate, and a Chemo-Tx filter coated with 0.001% Fibronectin on both sides was placed onto the plate. The cultured cell suspensions (25,000 cells) were added onto the upper surface of the filter and were further cultured at 37° C. for 3 hours. Thereafter, the cells on the upper surface of the filter were removed. After the filter was removed and was dried, the cells which had migrated to the lower surface of the filter were stained with Diff-Quik stain (16920, Sysmex). The absorbance of the filter (570 nm) was measured and the concentration (IC50) of the test compound required for 50% inhibition of the cell migration activity of LPA was determined by non-linear regression analysis using EXSAS (version 7.6.0, Arm Systex).

| Structure (SMILES) | IC50 |
| --- | --- |
| C[C@@H](OC(=O)Nc1cc(Cl)sc1-c1ccc(-c2ccc(C3(C(=O)O)CC3)cc2)cc1)c1ccsc1 [Example 10, Sodium (R)-1-{4′-[5-chloro-3-({[1-(thiophen-3-yl)ethoxy]carbonyl}amino)thiophen-2-yl]-[1,1′-biphenyl]-4-yl}cyclopropanecarboxylate] | ≤ 200 nM |
| COc1cc(-c2sc(Cl)cc2NC(=O)O[C@H](C)c2ccccc2)ccc1-c1ccc(C2(C(=O)O)CC2)cc1 [Example 1, Sodium (R)-1-[4′-(5-chloro-3-{[(1-phenylethoxy)carbonyl]amino}thiophen-2-yl)-2′-methoxy-[1,1′-biphenyl]-4-yl]cyclopropanecarboxylate] | ≤ 200 nM |
| COc1cc(-c2sc(F)cc2NC(=O)O[C@H](C)c2ccccc2Cl)ccc1-c1ccc(C2(C(=O)O)CC2)cc1 [Example 7, Sodium (R)-1-{4′-[3-({[1-(2-chlorophenyl)ethoxy]carbonyl}amino)-5-fluorothiophen-2-yl]-2′-methoxy-[1,1′-biphenyl]-4-yl}cyclopropanecarboxylate] | ≤ 200 nM |
| COc1cc(-c2sc(Cl)cc2NC(=O)O[C@H](C)c2cc(F)ccc2F)ccc1-c1ccc(C2(C(=O)O)CC2)cc1 [Example 4, Sodium (R)-1-{4′-[5-chloro-3-({[1-(2,5-difluorophenyl)ethoxy]carbonyl}amino)thiophen-2-yl]-2′-methoxy-[1,1′-biphenyl]-4-yl}cyclopropanecarboxylate] | ≤ 200 nM |
| Cc1cscc1[C@@H](C)OC(=O)Nc1cc(F)sc1-c1ccc(-c2ccc(C3(C(=O)O)CC3)cc2)cc1 [Example 13, Sodium (R)-1-{4′-[5-fluoro-3-({[1-(4-methylthiophen-3-yl)ethoxy]carbonyl}amino)thiophen-2-yl]-[1,1′-biphenyl]-4-yl}cyclopropanecarboxylate] | ≤ 200 nM |
